Counter-ions that a name gives are not always drawn.
Target: T1, human β-Secretase (Homo sapiens, UniProt P56817)
T1 construct: The soluble part of the human β-Secretase (AA 1-AA 460) was cloned; made in house
Test: TR-FRET assay;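 note: sBACE-Fc from HEK 293 cells, compound preincubated 10 min, then 15 min substrate reaction at RT in darkness, 5% DMSO, DMSO control as 100% and enzyme-free wells as 0%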
Assay type: biochemical
Conditions: soluble human β-Secretase (sBACE-Fc), substrate (Europium)CEVNLDAEFK(Qsy7) 100 nM, pH 4.5

T1 sequence (P56817 22-460): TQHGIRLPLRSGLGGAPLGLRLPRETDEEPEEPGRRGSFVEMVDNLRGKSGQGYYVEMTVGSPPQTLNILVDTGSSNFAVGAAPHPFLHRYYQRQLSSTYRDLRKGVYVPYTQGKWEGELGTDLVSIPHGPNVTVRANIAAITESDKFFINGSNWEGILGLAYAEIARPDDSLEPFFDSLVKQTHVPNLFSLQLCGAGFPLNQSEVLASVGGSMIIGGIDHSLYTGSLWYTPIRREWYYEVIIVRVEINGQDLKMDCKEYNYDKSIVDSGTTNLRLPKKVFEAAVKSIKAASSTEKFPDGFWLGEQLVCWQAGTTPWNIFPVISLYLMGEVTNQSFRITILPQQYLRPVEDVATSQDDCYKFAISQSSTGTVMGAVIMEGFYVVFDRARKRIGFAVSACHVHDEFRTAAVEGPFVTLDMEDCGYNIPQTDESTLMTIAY

“4-[5-Amino-7-(3′,5′-dichlorobiphenyl-3-yl)-2,7-dihydro-3H-imidazo[1,5-a]imidazol-7-yl]phenyl methanesulfonate 0.25 acetate [Example 61]” was tested, and the IC50 was 146 nM.

Same assay, conditions: soluble human β-Secretase (sBACE-Fc), substrate (Europium)[…](Qsy7) 100 nM, pH 4.5

Point of comparison: `NC1=NC(c2ccc(OS(=O)(=O)C(F)(F)F)cc2)(c2cccc(-c3cccc(Cl)c3)c2)C2=NCCN12` (stereo not shown) [Example 96, 4-[5-Amino-7-(3′-chlorobiphenyl-3-yl)-2,7-dihydro-3H-imidazo[1,5-a]imidazol-7-yl]phenyl trifluoromethanesulfonate 0.75 acetate], IC50 227 nM. Against it:
- NC1=NC(c2ccccc2)(c2cccc(-c3cc(Cl)cc(Cl)c3)c2)C2=NCCCN12 (stereo not shown) [Example 102, 8-(3′,5′-Dichlorobiphenyl-3-yl)-8-phenyl-2,3,4,8-tetrahydroimidazo[1,5-a]pyrimidin-6-amine hydrochloride] — 1.5-fold lower, 149 nM
- CS(=O)(=O)Oc1cccc(C2(c3cccc(-c4cc(Cl)cc(Cl)c4)c3)N=C(N)N3CCCN=C32)c1 (stereo not shown) [Example 181, 3-[6-Amino-8-(3′,5′-dichlorobiphenyl-3-yl)-2,3,4,8-tetrahydroimidazo[1,5-a]pyrimidin-8-yl]phenyl methanesulfonate] — 2.1-fold lower, 106 nM
- COc1ccc(C2(c3cccc(-c4cc(Cl)cc(Cl)c4)c3)N=C(N)N3CC(F)CN=C32)cc1 (stereo not shown) [Example 136, 8-(3′,5′-Dichlorobiphenyl-3-yl)-3-fluoro-8-(4-methoxyphenyl)-2,3,4,8-tetrahydroimidazo[1,5-a]pyrimidin-6-amine 1.5 acetate] — 6.7-fold lower, 34 nM
- COc1cccc(-c2cccc(C3(c4cccc(OS(C)(=O)=O)c4)N=C(N)N4CCCN=C43)c2)c1 (stereo not shown) [Example 183, 3-[6-Amino-8-(3′-methoxybiphenyl-3-yl)-2,3,4,8-tetrahydroimidazo[1,5-a]pyrimidin-8-yl]phenyl methanesulfonate] — within 1.5-fold, 252 nM
- COc1ccc(C2(c3cccc(-c4cc(Cl)cc(Cl)c4)c3)N=C(N)N3CC(NS(C)(=O)=O)CN=C32)cc1 (mixture of isomers) [Example 130, N-[6-Amino-8-(3′,5′-dichlorobiphenyl-3-yl)-8-(4-methoxyphenyl)-2,3,4,8-tetrahydroimidazo[1,5-a]pyrimidin-3-yl]methanesulfonamide] — 13-fold lower, 17 nM
- COc1ccc(C2(c3cccc(-c4cc(Cl)cc(Cl)c4)c3)N=C(N)N3C2=NCC[C@H]3C(=O)O)cc1 (mixture of isomers) [Example 131, (4S)-6-amino-8-(3′,5′-dichlorobiphenyl-3-yl)-8-(4-methoxyphenyl)-2,3,4,8-tetrahydroimidazo[1,5-a]pyrimidine-4-carboxylic acid] — within 1.5-fold, 159 nM
- COc1ccc(C2(c3cccc(-c4cc(Cl)cc(Cl)c4)c3)N=C(N)N3CC(S(C)(=O)=O)CN=C32)cc1 (stereo not shown) [Example 124, 8-(3′,5′-Dichlorobiphenyl-3-yl)-8-(4-methoxyphenyl)-3-(methylsulfonyl)-2,3,4,8-tetrahydroimidazo[1,5-a]pyrimidin-6-amine 2.0 acetate] — 5.8-fold lower, 39 nM
- COc1ccc(C2(c3cccc(-c4cc(Cl)cc(Cl)c4)c3)N=C(N)N3CC(C#N)CN=C32)cc1 (mixture of isomers) [Example 127, 6-Amino-8-(3′,5′-dichlorobiphenyl-3-yl)-8-(4-methoxyphenyl)-2,3,4,8-tetrahydroimidazo[1,5-a]pyrimidine-3-carbonitrile] — 8.4-fold lower, 27 nM
- CS(=O)(=O)Oc1cccc(C2(c3cccc(-c4cc(C(F)(F)F)cc(C(F)(F)F)c4)c3)N=C(N)N3CCCN=C32)c1 (stereo not shown) [Example 176, 3-[6-Amino-8-[3′,5′-bis(trifluoromethyl)biphenyl-3-yl]-2,3,4,8-tetrahydroimidazo[1,5-a]pyrimidin-8-yl]phenyl methanesulfonate] — 5.3-fold higher, 1200 nM
- NC1=NC(c2ccccc2)(c2cccc(-c3cccc(Cl)c3)c2)C2=NCCCN12 (stereo not shown) [Example 31, 8-(3′-Chlorobiphenyl-3-yl)-8-phenyl-2,3,4,8-tetrahydroimidazo[1,5-a]pyrimidin-6-amine hydrochloride] — within 1.5-fold, 255 nM
- COc1cc(OS(C)(=O)=O)cc(-c2cccc(C3(c4ccccc4)N=C(N)N4CCCN=C43)c2)c1 (stereo not shown) [Example 103, 3′-(6-Amino-8-phenyl-2,3,4,8-tetrahydroimidazo[1,5-a]pyrimidin-8-yl)-5-methoxybiphenyl-3-yl methanesulfonate hydrochloride] — 3.2-fold higher, 727 nM
- COc1ccc(C2(c3cccc(-c4cc(Cl)cc(Cl)c4)c3)N=C(N)N3CC(NC(C)=O)CN=C32)cc1 (mixture of isomers) [Example 129, N-[6-amino-8-(3′,5′-dichlorobiphenyl-3-yl)-8-(4-methoxyphenyl)-2,3,4,8-tetrahydroimidazo[1,5-a]pyrimidin-3-yl]acetamide] — 11-fold lower, 21 nM
- CS(=O)(=O)Oc1cccc(C2(c3cccc(-c4cccc(Cl)c4)c3)N=C(N)N3CCCN=C32)c1 (stereo not shown) [Example 182, 3-[6-Amino-8-(3′-chlorobiphenyl-3-yl)-2,3,4,8-tetrahydroimidazo[1,5-a]pyrimidin-8-yl]phenyl methanesulfonate] — within 1.5-fold, 285 nM
- COc1ccc(C2(c3cccc(-c4cc(Cl)cc(Cl)c4)c3)N=C(N)N3CC(C(=O)O)CN=C32)cc1 (mixture of isomers) [Example 128, 6-Amino-8-(3′,5′-dichlorobiphenyl-3-yl)-8-(4-methoxyphenyl)-2,3,4,8-tetrahydroimidazo[1,5-a]pyrimidine-3-carboxylic acid] — 6.7-fold lower, 34 nM
- NC1=NC(c2ccccc2)(c2cccc(-c3cc(Cl)ccc3F)c2)C2=NCCCN12 (stereo not shown) [Example 101, 8-(5′-Chloro-2′-fluorobiphenyl-3-yl)-8-phenyl-2,3,4,8-tetrahydroimidazo[1,5-a]pyrimidin-6-amine hydrochloride] — 1.7-fold higher, 378 nM
- COc1ccc(C2(c3cccc(-c4cc(Cl)cc(Cl)c4)c3)N=C(N)N3CC(F)(F)CN=C32)cc1 (stereo not shown) [Example 132, 8-(3′,5′-Dichlorobiphenyl-3-yl)-3,3-difluoro-8-(4-methoxyphenyl)-2,3,4,8-tetrahydroimidazo[1,5-a]pyrimidin-6-amine 0.75 acetate] — 7.1-fold lower, 32 nM
- CCCS(=O)(=O)Oc1cccc(C2(c3cccc(-c4cccc(OC)c4)c3)N=C(N)N3CCCN=C32)c1 (stereo not shown) [Example 185, 3-[6-Amino-8-(3′-methoxybiphenyl-3-yl)-2,3,4,8-tetrahydroimidazo[1,5-a]pyrimidin-8-yl]phenyl propane-1-sulfonate] — 2.1-fold lower, 106 nM
- NC1=NC(c2cccc(OS(=O)(=O)C3CC3)c2)(c2cccc(-c3cc(Cl)cc(Cl)c3)c2)C2=NCCCN12 (stereo not shown) [Example 186, 3-[6-Amino-8-(3′,5′-dichlorobiphenyl-3-yl)-2,3,4,8-tetrahydroimidazo[1,5-a]pyrimidin-8-yl]phenyl cyclopropanesulfonate] — 4.5-fold lower, 51 nM
- COc1ccc(C2(c3cccc(-c4cc(Cl)cc(Cl)c4)c3)N=C(N)N3CC(O)CN=C32)cc1 (mixture of isomers) [Example 125, 6-Amino-8-(3′,5′-dichlorobiphenyl-3-yl)-8-(4-methoxyphenyl)-2,3,4,8-tetrahydroimidazo[1,5-a]pyrimidin-3-ol] — 10-fold lower, 22 nM
- COc1cccc(-c2cccc(C3(c4ccccc4)N=C(N)N4CCCN=C43)c2)c1 (stereo not shown) [Example 30, 8-(3′-Methoxybiphenyl-3-yl)-8-phenyl-2,3,4,8-tetrahydroimidazo[1,5-a]pyrimidin-6-amine hydrochloride] — 2.2-fold higher, 510 nM
- COc1cccc(C2(c3cccc(-c4cc(Cl)cc(Cl)c4)c3)N=C(N)N3CCCN=C32)c1 (stereo not shown) [Example 178, 8-(3′,5′-Dichlorobiphenyl-3-yl)-8-(3-methoxyphenyl)-2,3,4,8-tetrahydroimidazo[1,5-a]pyrimidin-6-amine] — 2.5-fold lower, 92 nM
- COc1ccc(C2(c3cccc(-c4cc(Cl)cc(Cl)c4)c3)N=C(N)N3CC(OC)CN=C32)cc1 (mixture of isomers) [Example 126, 8-(3′,5′-Dichlorobiphenyl-3-yl)-3-methoxy-8-(4-methoxyphenyl)-2,3,4,8-tetrahydroimidazo[1,5-a]pyrimidin-6-amine] — 5.5-fold lower, 41 nM
- COc1ccc(F)c(-c2cccc(C3(c4ccccc4)N=C(N)N4CCCN=C43)c2)c1 (stereo not shown) [Example 100, 8-(2′-Fluoro-5′-methoxybiphenyl-3-yl)-8-phenyl-2,3,4,8-tetrahydroimidazo[1,5-a]pyrimidin-6-amine hydrochloride] — within 1.5-fold, 305 nM
- NC1=NC(c2cccc(OS(=O)(=O)C(F)(F)F)c2)(c2cccc(-c3cccc(Cl)c3)c2)C2=NCCCN12 (stereo not shown) [Example 177, 3-[6-Amino-8-(3′-chlorobiphenyl-3-yl)-2,3,4,8-tetrahydroimidazo[1,5-a]pyrimidin-8-yl]phenyl trifluoromethanesulfonate] — within 1.5-fold, 246 nM
- NC1=NC(c2ccc(OS(=O)(=O)C(F)(F)F)cc2)(c2cccc(-c3cccc(Cl)c3)c2)C2=NCCCN12 (stereo not shown) [Example 99, 4-[6-Amino-8-(3′-chlorobiphenyl-3-yl)-2,3,4,8-tetrahydroimidazo[1,5-a]pyrimidin-8-yl]phenyl trifluoromethanesulfonate acetate] — 2-fold lower, 113 nM
- CCCS(=O)(=O)Oc1cccc(C2(c3cccc(-c4cc(Cl)cc(Cl)c4)c3)N=C(N)N3CCCN=C32)c1 (stereo not shown) [Example 184, 3-[6-Amino-8-(3′,5′-dichlorobiphenyl-3-yl)-2,3,4,8-tetrahydroimidazo[1,5-a]pyrimidin-8-yl]phenyl propane-1-sulfonate] — 3.3-fold lower, 69 nM

Reference: patent US20080058349A1, “New Compounds 318” (Astrazeneca AB, priority 2006, published 2008)
